# Reference: patent US20100104546A1, “MODULATORS OF ANTIGEN-DEPENDENT T CELL PROLIFERATION” (CHILDREN, YOUTH AND WOMEN'S HEALTH SERVICE, priority 2007, published 2010)
# What was measured:
# splenocytes = test: Tetanus toxoid (TT)-induced ex vivo lymphocyte proliferation after administration to TT-immunized mice; conditions: 10, 40 and 80 mg/kg i.p. in mouse serum, spleens removed 2 h later
# Procedure: Mice were immunized with SRBC. After 5 days they were given β-thia-21:3n-3 at the indicated doses i.p. After 2 hours the spleens were removed and processed into single cell suppressions. These were then cultured in the presence (□), or absence of (▪) of SRBC to assess the proliferation. The results are expressed as mean±SEM of 3 experiments. (B) Effect of β-oxa-21:3n-3 on tetanus toxoid (TT)-induced ex vivo lymphocyte responses. Mice were immunized with TT subcutaneously and after 7 days were given β-oxa-21:3n-3 in mouse serum, intraperitoneally. Two hours later the spleen removed, single cell suspension prepared and examined for lymphoproliferation responses to TT in 5 day cultures. The results are expressed as mean±SEM of 3 experiments.
# 6-7 weeks old Balb/c mice were injected subcutaneously with 100 μl of 10% sheep red blood cells (IMVS, Inc., Adelaide, Australia) After 5 days 100 ul of β-oxa-21:3n-3 at indicated amounts were injected intraperitoneally, intravenously or gavaged orally. […] Cells were washed with RPMI-1640 containing 10% fetal bovine serum, 10 mM Hepes, antibiotics and glutamine (RPMI-10) and counted using an automated Cell-Dyne 3500R (Abbott, Inc. MA) instrument. […] Cells were harvested and thymidine incorporation was determined using a beta scintillation counter. […]
# [1] = test system: circulating cytokine levels; test: Circulating cytokine levels in SRBC-sensitized mice after intravenous SRBC challenge; type: in vivo; conditions: serum, 80 mg/kg IP, 6 h after IV SRBC; ELISA
# [2] = test system: delayed-type hypersensitivity to SRBC antigen; conditions: intraperitoneal administration, mouse hind paws; cited from earlier work
compound,measurement,setting,value
CC/C=C\C/C=C\C/C=C\CCCCCCCCOCC(=O)O [β-oxa-21:3n-3],lymphoproliferation in response to TT,splenocytes,capable of inhibiting the response
same,TGFβ conc,[1],(52 ± 6) × 10^3 pg/ml
same,delayed-type hypersensitivity to SRBC antigen,[2],inhibition
